Experiment [1] deals with serum calcium concentration. Put plainly: Biological assay of calcitonin analogs in vivo: reduction of serum calcium, 2×2 parallel line assay against synthetic salmon calcitonin standard. More on the design: species or system Rats. The settings on record: independently determined content of the standard. As for the experimental part:
The biological potency of des-21-threonine-salmon calcitonin was determined by comparing the reduction of serum calcium concentration which followed administration by graded doses of des-Thr^21 -SCT and synthetic salmon calcitonin standard. Rats were divided into four groups of seven animals, and each group was assigned at random to a dose of standard or test solution. Low and high doses were chosen from the linear portion of the dose-response curve. For the salmon calcitonin standard, the values were 0.7 and 2.1 ng. peptide/100 g. body weight (BW). This dose approximates 3 and 9 MU/100 g. BW. Peptides were given by subcutaneous injection (0.2 ml/100 g. BW) and blood was withdrawn 1 hour later for serum calcium determination. Sera are processed and analyzed within two hours of collection. […]. Results were analyzed by a 2×2 parallel line assay [Gaddum, J. H., J. Pharm. Pharmacol., 6, 345 (1953)]. The standard salmon calcitonin used was independently determined to contain greater than 4,000 IU/mg. des-Thr^21 -SCT assayed at 5355 IU/mg.

For experiment [2] the following is noted: literature values; cited from earlier work.

Take `CC(C)C[C@H](NC(=O)[C@H](CCCCN)NC(=O)CNC(=O)[C@H](CC(C)C)NC(=O)[C@@H](NC(=O)[C@@H]1CSSC[C@H](N)C(=O)N[C@@H](CO)C(=O)N[C@@H](CC(N)=O)C(=O)N[C@@H](CC(C)C)C(=O)N[C@@H](CO)C(=O)N[C@@H]([C@@H](C)O)C(=O)N1)C(C)C)C(=O)N[C@@H](CO)C(=O)N[C@@H](CCC(N)=O)C(=O)N[C@@H](CCC(=O)O)C(=O)N[C@@H](CC(C)C)C(=O)N[C@@H](Cc1c[nH]cn1)C(=O)N[C@@H](CCCCN)C(=O)N[C@@H](CC(C)C)C(=O)N[C@@H](CCC(N)=O)C(=O)N[C@H](C(=O)N[C@@H](Cc1ccc(O)cc1)C(=O)N1CCC[C@H]1C(=O)N[C@@H](CCCNC(=N)N)C(=O)N[C@H](C(=O)N[C@@H](CC(N)=O)C(=O)N[C@H](C(=O)NCC(=O)N[C@@H](CO)C(=O)NCC(=O)N[C@H](C(=O)N1CCC[C@H]1C(N)=O)[C@@H](C)O)[C@@H](C)O)[C@@H](C)O)[C@@H](C)O` [standard salmon calcitonin, Salmon calcitonin]: the “potency of the standard salmon calcitonin used” value in experiment [1] is reported as “greater than 4,000 IU/mg”.

As to “(1,7-α-L-aminosuberic acid)eel calcitonin”, the hypocalcemic potency result in experiment [2] is “about 3400 IU/mg”.

Take “eel calcitonin [synthetic eel calcitonin]”: the hypocalcemic potency entry in experiment [2] is recorded as “around 4300 IU/mg”.

Source of the values: US4604237A, “Des-21-threonine-calcitonin” (Armour Pharmaceutical Company, priority 1984, dated 1986).
